The target of series [1] is T1, human metabotropic glutamate 7 receptor (hmGlu7) (Homo sapiens, UniProt Q14831).
T1 construct: expressed in transfected cells
As to the kind of experiment: mGlu7 assay on HEK-expressing human mGlu7: fluorescent cell based Ca2+ mobilization assay (FLIPR), inhibition of EC80 L-AP4 response. As to conditions: HEK-293 cells expressing hmGlu7; EC80 L-AP4 stimulation; mean of at least three independent experiments in duplicate; read-out: Ca2+ Flux (mean IC50). The procedure, abridged:
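HEK293 cells stably expressing hmGlu7 with a calcium-redirecting G protein were Fluo4-AM-loaded and assayed at pH 7.4 in HEPES buffer. Compounds were monitored for 180 s for agonism, then cells were challenged with EC80 L-AP4 for 110 s. IC50 was obtained from four-parameter fits, as the mean of ≥3 experiments run in duplicate.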
Background: A change in cytosolic calcium serves as a functional read-out for many receptors and channels.

Among the data in patent US20240262833A1, “FUSED HETEROCYCLIC DERIVATIVES AS NEGATIVE ALLOSTERIC MODULATORS OF MGLU7 RECEPTOR” (Addex Pharma S.A., priority 2021, published 2024) are IC50 and melting point values, retold here.

T1 sequence (Q14831 35-922 isoform Q14831-2): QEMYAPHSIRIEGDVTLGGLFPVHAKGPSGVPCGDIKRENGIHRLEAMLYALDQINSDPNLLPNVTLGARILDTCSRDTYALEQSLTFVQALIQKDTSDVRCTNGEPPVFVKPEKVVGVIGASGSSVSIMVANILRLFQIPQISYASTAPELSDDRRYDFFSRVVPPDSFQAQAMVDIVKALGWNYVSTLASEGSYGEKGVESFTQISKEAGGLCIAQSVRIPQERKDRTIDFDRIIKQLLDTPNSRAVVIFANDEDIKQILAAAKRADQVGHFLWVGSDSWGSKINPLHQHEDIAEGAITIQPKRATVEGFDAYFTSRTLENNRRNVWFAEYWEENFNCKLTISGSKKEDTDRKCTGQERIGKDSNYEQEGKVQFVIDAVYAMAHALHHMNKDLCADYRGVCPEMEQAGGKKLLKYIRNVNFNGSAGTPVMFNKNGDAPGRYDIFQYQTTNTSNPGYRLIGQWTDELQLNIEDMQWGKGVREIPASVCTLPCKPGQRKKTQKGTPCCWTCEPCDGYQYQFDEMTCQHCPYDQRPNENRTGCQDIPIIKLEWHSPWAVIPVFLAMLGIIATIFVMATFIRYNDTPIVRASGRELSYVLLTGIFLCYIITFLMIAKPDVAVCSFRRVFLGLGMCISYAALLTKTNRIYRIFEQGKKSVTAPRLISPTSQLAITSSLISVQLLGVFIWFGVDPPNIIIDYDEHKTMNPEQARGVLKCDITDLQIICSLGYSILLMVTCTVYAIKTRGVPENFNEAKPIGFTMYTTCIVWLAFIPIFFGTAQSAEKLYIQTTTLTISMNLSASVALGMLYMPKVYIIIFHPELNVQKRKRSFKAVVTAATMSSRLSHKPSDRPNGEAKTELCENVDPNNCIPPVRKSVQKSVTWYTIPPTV

For the compound `COc1ccccc1-n1ncc2c(C)n(-c3ccc(C)cc3)c(C)c2c1=O` [1-2, 2-(2-Methoxyphenyl)-5,7-dimethyl-6-p-tolyl-2,6-dihydro-1H-pyrrolo[3,4-d]pyridazin-1-one], the melting point came to 202 °C. Moreover, the IC50 in series [1] was 100 to 1000 nM.
On the same counts, the results for `Cc1c2cnn(-c3ccccc3F)c(=O)c2c(C)n1-c1ccccc1` [1-21, 2-(2-Fluorophenyl)-5,7-dimethyl-6-phenyl-2,6-dihydro-1H-pyrrolo [3,4-d]pyridazin-1-one] are 226 °C and 100 to 1000 nM.
On the same counts, the results for `COc1cccc(-n2c(C)c3cnn(-c4ccccc4)c(=O)c3c2C)c1` [1-26, 6-(3-Methoxyphenyl)-5,7-dimethyl-2-phenyl-2,6-dihydro-1H-pyrrolo[3,4-d]pyridazin-1-one] are 213 to 215 °C and under 100 nM.
Consider `CC(=O)c1cccc(-n2c(C)c3cnn(-c4ccccc4)c(=O)c3c2C)c1` [1-36, 6-(3-Acetylphenyl)-5,7-dimethyl-2-phenyl-2,6-dihydro-1H-pyrrolo [3,4-d]pyridazin-1-one], for which the melting point was 202 to 204 °C. In series [1], the IC50 lay within 100 to 1000 nM.
On the same counts, the results for `COCCNc1cccc(-n2c(C)c3cnn(-c4ccccc4)c(=O)c3c2C)c1` [1-43, 6-(3-(2-Methoxyethylamino)phenyl)-5,7-dimethyl-2-phenyl-2,6-dihydro-1H-pyrrolo[3,4-d]pyridazin-1-one] are 116 to 119 °C and 100 to 1000 nM.
In turn, `Cc1c2cnn(-c3ccccc3)c(=O)c2c(C)n1-c1cccc(O)c1` [1-51, 6-(3-Hydroxyphenyl)-5,7-dimethyl-2-phenyl-2,6-dihydro-1H-pyrrolo[3,4-d]pyridazin-1-one] registered a melting point of 252 to 254 °C. In addition, the IC50 in series [1] is 1000 to 10000 nM.
On the same counts, the results for `Cc1c2cnn(-c3ccccn3)c(=O)c2c(C)n1-c1cccc(-c2ccccc2)c1` [1-76, 6-([1,1′-Biphenyl]-3-yl)-5,7-dimethyl-2-(pyridin-2-yl)-2,6-dihydro-1H-pyrrolo[3,4-d]pyridazin-1-one] are 106 to 109 °C and 100 to 1000 nM.
On the same counts, the results for `COc1cccc(-n2c(C)c3cnn(-c4ccc(CN)cc4)c(=O)c3c2C)c1` [1-88, 2-(4-(Aminomethyl)phenyl)-6-(3-methoxyphenyl)-5,7-dimethyl-2,6-dihydro-1H-pyrrolo[3,4-d]pyridazin-1-one] are 145 to 155 °C and 100 to 1000 nM.
Compound `CCN(CC)c1cccc(-n2c(C)c3cnn(-c4ccccn4)c(=O)c3c2C)c1` [1-100, 6-(3-(Diethylamino)phenyl)-5,7-dimethyl-2-(pyridin-2-yl)-2,6-dihydro-1H-pyrrolo[3,4-d]pyridazin-1-one] came in with a melting point of under 85 °C. Also, the half-inhibitory concentration (IC50) in series [1] fell in the range of 100 to 1000 nM.
On the same counts, the results for `Cc1c2cnn(-c3ccccc3)c(=O)c2c(C)n1-c1cccc(N2CCCC2)c1` [1-101, 5,7-Dimethyl-2-phenyl-6-(3-(pyrrolidin-1-yl)phenyl)-2,6-dihydro-1H-pyrrolo[3,4-d]pyridazin-1-one] are 228 to 229 °C and 100 to 1000 nM.
On the same counts, the results for `CNCc1ccc(-n2ncc3c(C)n(-c4cccc(OC)c4)c(C)c3c2=O)cc1` [1-109, 6-(3-Methoxyphenyl)-5,7-dimethyl-2-(4-((methylamino)methyl)phenyl)-2,6-dihydro-1H-pyrrolo[3,4-d]pyridazin-1-one] are 150 to 154 °C and 100 to 1000 nM.
On the same counts, the results for `COc1cccc(-n2c(C)c3cnn(-c4cc(OC)ccn4)c(=O)c3c2C)c1` [1-123] are 95 to 97 °C and 1000 to 10000 nM.
`COc1cccc(-n2c(C)c3cnn(-c4ccc(C#N)cc4)c(=O)c3c2C)c1` [1-126]: the melting point fell in the range of 97 to 99 °C. Also, in series [1], the IC50 lay in the range of 100 to 1000 nM.
On the same counts, the results for `COc1cccc(-n2c(C)c3cnn(-c4ccc(O)nc4)c(=O)c3c2C)c1` [1-131, 2-(6-Hydroxypyridin-3-yl)-6-(3-methoxyphenyl)-5,7-dimethyl-2,6-dihydro-1H-pyrrolo[3,4-d]pyridazin-1-one] are 207 to 209 °C and 100 to 1000 nM.
For the compound `CCOC(=O)c1cccc(-n2c(C)c3cnn(-c4ccccn4)c(=O)c3c2C)c1` [1-133], the melting point fell in the range of 86 to 90 °C. For the same compound, in series [1], the IC50 fell in the range of 100 to 1000 nM.
`COc1cccc(-n2c(C)c3cnn(-c4ccc(C(C)(C)O)cc4)c(=O)c3c2C)c1` [1-135, 2-(4-(2-Hydroxypropan-2-yl)phenyl)-6-(3-methoxyphenyl)-5,7-dimethyl-2,6-dihydro-1H-pyrrolo[3,4-d]pyridazin-1-one]: the melting point fell in the range of 103 to 108 °C. The IC50 in series [1] is under 100 nM.
On the same counts, the results for `COc1cccc(-n2c(C)c3cnn(-c4ccc(C(C)O)cc4)c(=O)c3c2C)c1` (centres unmarked) [1-138, 2-(4-(1-Hydroxyethyl)phenyl)-6-(3-methoxyphenyl)-5,7-dimethyl-2,6-dihydro-1H-pyrrolo[3,4-d]pyridazin-1-one] are 192 to 195 °C and under 100 nM.
On the same counts, the results for `O=c1c2cn(-c3cccc(N4CCC4)c3)cc2cnn1-c1ccccn1` [1-188, 6-(3-(Azetidin-1-yl)phenyl)-2-(pyridin-2-yl)-2,6-dihydro-1H-pyrrolo[3,4-d]pyridazin-1-one] are 190 to 192 °C and 1000 to 10000 nM.
On the same counts, the results for `Cc1c2cnn(-c3ccccn3)c(=O)c2c(C)n1-c1cccc(-n2nccn2)c1` [1-199, 6-(3-(2H-1,2,3-Triazol-2-yl)phenyl)-5,7-dimethyl-2-(pyridin-2-yl)-2,6-dihydro-1H-pyrrolo[3,4-d]pyridazin-1-one] are 173 °C and 100 to 1000 nM.
Turning to `COc1cccc(-n2c(C)c3cnn(-c4ncc(C5CC5)cn4)c(=O)c3c2C)c1C` [1-207], the IC50 in series [1] fell in the range of 100 to 1000 nM.
Still for that read-out and setting: with `Cc1c2cnn(-c3ncc(F)cn3)c(=O)c2c(C)n1-c1cc(F)cc(N2CCC2)c1` [1-208] the figure was under 100 nM; with `Cc1c2cnn(-c3ncccc3F)c(=O)c2c(C)n1-c1cc(F)cc(N2CCC2)c1` [1-209], under 100 nM.
Same read-out and setting: with `Cc1c2cnn(-c3ccccn3)c(=O)c2c(C)n1-c1cccc2c1CCN2C` [1-210] the figure was 100 to 1000 nM.
Still for that read-out and setting: with `Cc1c(OC2CC2)cccc1-n1c(C)c2cnn(-c3ncccc3F)c(=O)c2c1C` [1-211] the figure was under 100 nM.
Regarding `Cc1c(OC2CC2)cccc1-n1c(C)c2cnn(-c3ncc(F)cn3)c(=O)c2c1C` [1-212], the half-inhibitory concentration (IC50) in series [1] is under 100 nM.
Still for that read-out and setting: with `Cc1c2cnn(-c3ncccc3F)c(=O)c2c(C)n1-c1cccc2c1ccn2C1CC1` [1-213] the figure was under 100 nM; with `Cc1c2cnn(-c3ncc(F)cn3)c(=O)c2c(C)n1-c1cccc2c1ccn2C1CC1` [1-214], under 100 nM.
Regarding `Cc1c2cnn(-c3ncccn3)c(=O)c2c(C)n1-c1cccc(OC2CC2)c1Cl` [1-215, 6-(2-Chloro-3-cyclopropoxyphenyl)-5,7-dimethyl-2-(pyrimidin-2-yl)-2,6-dihydro-1H-pyrrolo[3,4-d]pyridazin-1-one], the melting point came to 228 °C. Also, the 50% inhibitory concentration (IC50) in series [1] was under 100 nM.
Consider `COc1cccc(-n2c(C)c3cnn(-c4ccc(C(C)(C)O)cn4)c(=O)c3c2C)c1` [1-216], for which, in series [1], the half-inhibitory concentration (IC50) is under 100 nM.
The same measure, in the same setting: with `Cc1c2cnn(-c3ncccc3F)c(=O)c2c(C)n1-c1cc(N2CCC2)ccc1F` [1-217] the figure was under 100 nM.
Still for that read-out and setting: as for `Cc1c2cnn(-c3ncc(F)cn3)c(=O)c2c(C)n1-c1cc(N2CCC2)ccc1F` [1-218], the figure is 100 to 1000 nM; as for `Cc1c2cnn(-c3ccc(N4CCOCC4)cc3)c(=O)c2c(C)n1-c1cccc(N2CCC2)c1` [1-219], 100 to 1000 nM; as for `Cc1c(O)cccc1-n1c(C)c2cnn(-c3ccc(N4CCOCC4)cc3)c(=O)c2c1C` [1-220], 1000 to 10000 nM.
The same measure, in the same setting: with `Cc1c(OC2CC2)cccc1-n1c(C)c2cnn(-c3ccc(N4CCOCC4)cc3)c(=O)c2c1C` [1-221] the figure was 1000 to 10000 nM; with `Cc1c2cnn(C34CC(C3)C4)c(=O)c2c(C)n1-c1cccc(N2CCC2)c1` [1-222], 100 to 1000 nM; with `Cc1c2cnn(-c3ncccn3)c(=O)c2c(C)n1-c1cccc(N2CCC2)c1` [1-223], 100 to 1000 nM.
As for `COc1cnc(-n2ncc3c(C)n(-c4cccc(N5CCC5)c4)c(C)c3c2=O)nc1` [1-224], the 50% inhibitory concentration (IC50) in series [1] was under 100 nM.
Still for that read-out and setting: with `Cc1c2cnn(-c3ncccc3F)c(=O)c2c(C)n1-c1cccc(N2CCC2)c1` [1-225] the figure was under 100 nM; with `Cc1c2cnn(-c3ncc(F)cn3)c(=O)c2c(C)n1-c1cccc(N2CCC2)c1` [1-226], under 100 nM; with `Cc1c2cnn(-c3nccs3)c(=O)c2c(C)n1-c1cccc(N2CCC2)c1` [1-227], 1000 to 10000 nM.
`Cc1cnc(-n2ncc3c(C)n(-c4cccc(N5CCC5)c4)c(C)c3c2=O)nc1` [1-228]: the IC50 in series [1] was under 100 nM.
With `COc1ccnc(-n2ncc3c(C)n(-c4cccc(N5CCC5)c4)c(C)c3c2=O)c1` [1-229], the half-maximal inhibitory concentration (IC50) in series [1] lay in the range of 100 to 1000 nM.
As for `Cc1c(OC(F)F)cccc1-n1c(C)c2cnn(-c3ccccn3)c(=O)c2c1C` [1-232], the IC50 in series [1] was 100 to 1000 nM.
Still for that read-out and setting: as for `COc1cccc(-n2c(C)c3cnn(-c4ccccn4)c(=O)c3c2C)c1F` [1-233], the figure is 100 to 1000 nM.
Still for that read-out and setting: with `COc1cccc(-n2c(C)c3cnn(-c4ncccn4)c(=O)c3c2C)c1F` [1-234] the figure was 100 to 1000 nM; with `Cc1c2cnn(-c3ccccn3)c(=O)c2c(C)n1-c1cccc(OC2CC2)c1F` [1-235], 100 to 1000 nM.
On the same count and under the same terms, as for `Cc1c2cnn(-c3ncccn3)c(=O)c2c(C)n1-c1cccc(OC2CC2)c1F` [1-236], the figure is under 100 nM.
For `COc1ccc(-n2c(C)c3cnn(-c4ncccn4)c(=O)c3c2C)cn1` [1-241], the IC50 in series [1] lay within 1000 to 10000 nM.

A word on the IC50: it is the concentration that inhibits the measured activity by half. The term melting point denotes the temperature of the solid-liquid transition.
